Results published in patent US20250241870A1, “OXYRESVERATROL AND DERIVATIVES THEREOF FOR USE IN LIPOLYSIS” (Caliway Biopharmaceuticals Co., Ltd., priority 2024, published 2025).
Read-outs that look alike come from different tables or passages of the source.

Assays:
3T3-L1 mature adipocytes = test: MTT assay, cell viability rate of 3T3-L1 mature adipocytes; type: cell-based; details: 24 hours; for Cell viability compared with DMSO Vehicle group / Effect on adipocytes compared with resveratrol at the same concentration: p<0.001; for Cell viability rate compared with 0.2% DMSO Vehicle group: 20 ppm, 40 ppm and 60 ppm, p<0.001, dose effect; for Effect on adipocytes compared with resveratrol at the same concentration: 40 ppm
Description: (§1) 3T3-L1 cell subculture medium (preadipocytes): DMEM+10% BCS+1% P/S.
(§2) 3T3-L1 cell induction differentiation medium (mature adipocytes): DMI Medium: DMEM+10% FBS+1% P/S+0.5 μM IBMX+0.1 μM dexamethasone+5 μg/mL insulin; and INS Medium: DMEM+10% FBS+1% P/S+5 μg/mL insulin. IBMX stock solution was prepared as follows: 500 mM solution in DMSO diluted and used to prepare the differentiation medium. Dexamethasone stock solution was preprepared as follows: 10 mM solution in EtOH diluted and used to prepare the differentiation medium. Insulin stock solution was prepared as follows: 10 mg/mL solution in double distilled water (ddw) diluted and used to prepare the differentiation medium.
(§3) Steps to induce differentiation: The adipocyte precursors 3T3-L1 cells (purchased from the Food Industry Research and Development Institute, Taiwan; abbreviated as BCRC) were seeded in 12-well plates, such that each well contained 1×10^5 cells.
(§4) MTT assay: After 3T3-L1 cells were induced to differentiate into mature adipocytes for 8 days, Resveratrol or Oxyresveratrol was added for treatment for 24 hours, then the culture medium was replaced with MTT reagent (working concentration: 0.5 mg/mL), and cultured in a 37° C. incubator for 2 hours. After removing the supernatant, DMSO was added to dissolve the purple crystals, and an ELISA reader was used to measure the OD 570 nm absorbance value and OD 630 nm background absorbance value. The background value OD 630 nm was subtracted from the measured value OD 570 nm in each group to obtain the final absorbance value.
(§5) Calculation formula (cell viability rate): After measuring the absorbance value at 570 nm and subtracting the background absorbance at 630 nm, the final absorbance value was multiplied by the […] and divided by the average absorbance value of the Control group for calculation.
(§6) 3T3-L1 preadipocytes and mature adipocytes were cultured using the same cell subculture medium disclosed in Example 1 above. Adipocytes differentiation, MTT assay, and determination cell viability was conducted following the methods disclosed herein. See, e.g. Example 1 above.

[1] = as above; type: cell-based; details: mouse
Description: as §1, §2, §3, §4, §5, §6

[2] = Cell viability rate, Replicate 1
[3] = Cell viability rate, Replicate 2
[4] = Cell viability rate, Replicate 3
[5] = Cell viability rate, Replicate 4

| Compound | Cell viability compared with DMSO Vehicle group (3T3-L1 mature adipocytes; 50 ppm) | Cell viability rate compared with 0.2% DMSO Vehicle group (3T3-L1 mature adipocytes) | viability at 24 h, 50 ppm ([1]; Cell viability rate, Mean) [%] | viability at 24 h, 50 ppm [1, 2] [%] | viability at 24 h, 50 ppm [1, 3] [%] | viability at 24 h, 50 ppm [1, 4] [%] | viability at 24 h, 50 ppm [1, 5] [%] | also measured |
| --- | --- | --- | --- | --- | --- | --- | --- | --- |
| COc1ccc(/C=C/c2cc(O)cc(O)c2)cc1O [IM05, 5-[(E)-2-(3-hydroxy-4-methoxyphenyl)ethenyl]benzene-1,3-diol] | significantly decreased | – | – | – | – | – | – | viability at 24 h, 50 ppm ([1]; 3T3-L1 mature adipocytes (differentiated from preadipocytes), 3T3-L1 mature adipocytes, drug 50 ppm, 0.2% DMSO, 24 hours, mean of 4 replicates, read-out: Cell viability rate, Mean): 72.4%; viability at 24 h, 50 ppm ([1]; 3T3-L1 mature adipocytes (differentiated from preadipocytes), 3T3-L1 mature adipocytes, drug 50 ppm, 0.2% DMSO, 24 hours, read-out: Cell viability rate, Replicate 1): 66.5%; viability at 24 h, 50 ppm ([1]; 3T3-L1 mature adipocytes (differentiated from preadipocytes), 3T3-L1 mature adipocytes, drug 50 ppm, 0.2% DMSO, 24 hours, read-out: Cell viability rate, Replicate 2): 71.2%; viability at 24 h, 50 ppm ([1]; 3T3-L1 mature adipocytes (differentiated from preadipocytes), 3T3-L1 mature adipocytes, drug 50 ppm, 0.2% DMSO, 24 hours, read-out: Cell viability rate, Replicate 3): 73.5%; viability at 24 h, 50 ppm ([1]; 3T3-L1 mature adipocytes (differentiated from preadipocytes), 3T3-L1 mature adipocytes, drug 50 ppm, 0.2% DMSO, 24 hours, read-out: Cell viability rate, Replicate 4): 78.4% |
| Oc1cc(O)cc(/C=C/c2ccc(O)cc2O)c1 [Oxyresveratrol, 4-[(E)-2-(3,5-dihydroxyphenyl)ethenyl]benzene-1,3-diol] | significantly decreased | significantly lower than 0.2% DMSO Vehicle group | 39.6 | 43.2 | 38 | 37 | 40 | Effect on adipocytes compared with resveratrol at the same concentration (3T3-L1 mature adipocytes; listed as OxyR): more effective in reducing adipocytes than Res; Effect on adipocytes compared with resveratrol at the same concentration (3T3-L1 mature adipocytes; listed as oxyresveratrol): better inhibitory effects against adipocytes as compared with resveratrol; Effect on adipocytes survival compared with derivatives TriacetylR and IM05 (3T3-L1 mature adipocytes; 50 ppm): more effective in reducing adipocytes survival than its derivatives; Cell viability rate compared with resveratrol at the same concentration (3T3-L1 mature adipocytes; 60 ppm): no significant difference in cell viability rate; viability at 24 h, 20 ppm ([1]; Average viability (%)): 76.8 ± 3.27%; viability at 24 h, 40 ppm ([1]; Average viability (%)): 28.65 ± 0.26%; viability at 24 h, 60 ppm ([1]; Average viability (%)): 12.5 ± 1.09% |
| Oc1ccc(C=Cc2cc(O)cc(O)c2)cc1 [Resveratrol] | – | significantly lower than 0.2% DMSO Vehicle group | – | – | – | – | – | viability at 24 h, 20 ppm ([1]; 3T3-L1 mature adipocytes (differentiated from preadipocytes), 3T3-L1 mature adipocytes, drug 20 ppm, 0.2% DMSO, 24 hours, relative to Control, mean ± spread of 3 replicates, read-out: Average viability (%)): 69.6 ± 1.36%; viability at 24 h, 40 ppm ([1]; 3T3-L1 mature adipocytes (differentiated from preadipocytes), 3T3-L1 mature adipocytes, drug 40 ppm, 0.2% DMSO, 24 hours, relative to Control, mean ± spread of 3 replicates, read-out: Average viability (%)): 43.4 ± 1.47%; viability at 24 h, 60 ppm ([1]; 3T3-L1 mature adipocytes (differentiated from preadipocytes), 3T3-L1 mature adipocytes, drug 60 ppm, 0.2% DMSO, 24 hours, relative to Control, mean ± spread of 3 replicates, read-out: Average viability (%)): 14.1 ± 0.6% |
| CC(=O)Oc1ccc(/C=C/c2cc(OC(C)=O)cc(OC(C)=O)c2)cc1 [TriacetyIR, [4-[(E)-2-(3,5-diacetyloxyphenyl)ethenyl]phenyl] acetate] | significantly decreased | – | 68.9 | 73.2 | 64 | 67.2 | 71.2 | – |
